Results as given in patent US20240074473A1, “METHOD FOR INDUCING HYPERTROPHIC MUSCLE FIBERS FOR INDUSTRIAL MEAT PRODUCTION” (Yeda Research and Development Co. Ltd., priority 2021, published 2024).
Where two headings read alike, the source gives them in different places. Values belong to the compound of their own block, whether it stands above or below them.

How the values were obtained:
[1] = tested on: primary chicken myoblasts; assay: Fusion index of primary chicken myoblasts (MyHC immunostaining); format: cell-based; details: primary chicken myoblasts; for Fusion index in combination with ERK inhibitor vs ERK inhibitor alone: proliferation media; for Fusion index in combination with ERK inhibitor vs ERK inhibitor alone / Fusion index: 48 hours; for Fusion index: proliferation medium; for Fusion: 48 hours post treatment
Description: Chicken primary derived myoblasts were used as a model to evaluate the efficiency of SCH772984 as the ERKi, compared to conventional differentiation medium (DM) for the purpose of producing muscle (meat) in tissue culture conditions. Chicken myoblasts were isolated from chicken embryos and expanded in proliferation medium. When sufficient cell numbers were acquired, cells were seeded on tissue culture plates and allowed to adhere for 24 hours. Then medium was changed to either PM supplemented with ERKi or DM. At 24-hours post treatment, the cells that received ERKi were replenished with fresh PM (without the addition of more ERKi), and DM treated cells were replenished with fresh DM. Media was replaced daily over a period of 72 hours.
Evaluation of muscle fiber formation was achieved by fixing the cells and staining for expression of Myosin Heavy Chain (FIG. 9A). […] Yet, treatment with conventional DM only began to form fibers beginning at 72-hours post treatment. A fusion index was quantified at 72 hours post treatment (FIG. 9B), in which the percentage of total nuclei present in a myotube (MyHC positive cell with 2 or more nuclei).
Primary chicken myoblast isolation and treatment: chicken myoblasts were isolated from broiler chicken embryos at day 18 from breast and leg muscles by using Trypsin B. Following tissue dissociation, the cell suspension was grown for 3-4 days on 10% Matrigel coated plates. At the first passage, the cells were lifted and pre-plated twice for 30 minutes to enrich for myoblasts and reduce the number of fibroblasts. Then cells were seeded at 8,000/well of optical-96 well plates in proliferation medium. 24 hours after plating, media was aspirated and replaced with the indicated treatment conditions in proliferation media or differentiation media (as indicated). After 24 hours with treatment, the media was aspirated and all wells were replenished with fresh proliferation media or differentiation media without any treatment. This was repeated daily. Cells were fixed at 48 hours after treatment. Compounds were purchased from Cayman Chemicals.
Immunofluorescent staining: Cells were fixed with ice cold 4% PFA in PBS for 10 minutes, permeabilized with 0.5% Triton X-100 in PBS for 6 minutes, and blocked in PBS with 0.025% tween, 10% normal horse serum and 10% normal goat serum for 1 hour at room temperature. Primary antibody incubation was done in blocking buffer overnight at 4 degrees, with the following antibodies: Myosin Heavy Chain (MyHC, MF20, DSHB hybridoma supernatant 1:10, alpha-actinin (SIGMA A7811). Cells were washed 3 times in PBS with 0.025% tween and then incubated with appropriate secondary antibodies in PBS 1 hour. Nuclei were labeled with DAPI (SIGMA D9542, 5 ug/ml). All fusion indexes and imaging analysis were performed on at least 1000 per technical repeat.

[2] = Risk categorization of cell culture media ingredients
Source text: Category 1: These cell culture media components are food ingredients/additives that are GRAS or permitted by federal regulation without limitation on use. Exemplary compounds in this category include innocuous ingredients such as sugars, pH buffers, water soluble vitamins, and common antioxidants such as tocopherols.
Category 2: These cell culture media components are common dietary nutrients and are anticipated to have GRAS status for food use or be permitted by regulation for addition to food. Examples of such compounds include most of the inorganic salts and macronutrients that are present within the cell culture media. […] Majority of nutrients present within the poultry cell-based meat may be readily measured using common validated methods for food composition testing. Batch analyses of multiple lots of the finished product may be obtained to validate the above assumptions. In some instances, consideration of established safe levels (e.g., ADI, UL) derived from a relevant authoritative body (e.g., U.S. FDA, EFSA, JECFA, FSANZ, U.S. EPA) may be leveraged to support safety. If comparisons of anticipated dietary intakes relative to an authoritative reference intake value is used, consideration of additive intakes from all dietary sources may be considered. In the absence of an authoritative reference intake value, published NOAELs from animal toxicology studies may be used to evaluate safety using standard scientific procedures for food safety evaluation. A margin of exposure (MoE) of 100-fold or greater between the NOAEL and estimated dietary intakes from food exposures is typically considered adequate to support safety. in situations where the MoE is <100-fold, additional measures for further reduction of the media component may be necessary, or further characterization of intraspecies/interspecies differences in metabolism may be necessary. These situations also require careful consideration of the regulatory status on a case-by basis (e.g., premarket approval as a food additive or GRAS evaluation required).
For example, situations where the compound is not detectable in finished product or is present at equivalent levels in comparator foods, compounds that are thermo-labile and will be digested during cooking, and/or compounds that are expected to be digested to innocuous compounds following ingestion. Examples of compounds meeting the aforementioned conditions would include recombinant growth factors and serum components. For Category 3 substances a final consideration in the safety assessment process may involve hazard characterization of the potential for a substance to produce toxic biological effects outside of the endpoints measured in a sub-chronic rat toxicity study. Substances with biological activity may require additional hazard characterization related to reproductive and developmental toxicity, or immunotoxicity. Considerations for allergenicity, biological effects in humans (e.g., effects on blood pressure), and synergistic effects with other media components also may be evaluated. […] Examples of category 3 components include recombinant proteins and animal serum.

[3] = Maximum estimated dietary exposure to media ingredients per 100 g serving; details: assumption of complete transfer of media components to the finished product on a wt/wt basis
[4] = human dietary intake, as iron; cited from earlier work
[5] = SCH772984 1 uM plus 9-cis RA 200 nM, AM80 200 nM, AM580 100 nM, CH55 200 nM, TTNPB 200 nM, Fenretinide 200 nM
[6] = cell culture media ingredient used during meat production
[7] = SCH772984 1 uM plus Caffeine 2 mM or Suramin 10 μM

Compound: CC1=C(/C=C/C(C)=C/C=C/C(C)=C/C(=O)Nc2ccc(O)cc2)C(C)(C)CCC1 [Fenretinide]
- Fusion index in combination with ERK inhibitor vs ERK inhibitor alone [1, 5]: significantly increased the fusion index

- Risk Assessment Category [2]: 2
Compound: N[C@@H](CO)C(=O)O [L-SERINE]

- Risk Assessment Category [2]: 1
- Maximum Estimated Exposure per 100 g serving [3]: 2000 mg
Compound: O=C1O[C@H]([C@@H](O)CO)C(O)=C1O [ASCORBIC ACID]

Compound: O.O.O.O.O.O.O.O.O.O=[Si]([O-])[O-].[Na+].[Na+] [SODIUM METASILICATE-9H2O]
- Risk Assessment Category [2]: 1
- Maximum Estimated Exposure per 100 g serving [3]: 1.6 mg

Compound: Cl.N[C@@H](Cc1cnc[nH]1)C(=O)O.O [L-HISTIDINE-HCL-H20]
- Risk Assessment Category [2, 6]: 2

Compound: FGF2 (FIBROBLAST GROWTH FACTOR-BASIC): growth factor of cell culture media
- Risk Assessment Category [2]: 3

- Risk Assessment Category [2, 6]: 2
Compound: N[C@@H](Cc1ccccc1)C(=O)O [L-PHENYLALANINE]

- Risk Assessment Category [2]: 2
Compound: C[C@H](N)C(=O)O [L-ALANINE]

- Risk Assessment Category [2]: 2
Compound: CC(C)[C@H](N)C(=O)O [L-VALINE]

Compound: CC1=C(/C=C/C(C)=C\C=C\C(C)=C\C(=O)O)C(C)(C)CCC1 [9-cis retinoic acid]
- Fusion index in combination with ERK inhibitor vs ERK inhibitor alone [1, 5]: significantly increased the fusion index

Compound: NC(=O)C[C@H](N)C(=O)O.O [L-ASPARAGINE-H20]
- Risk Assessment Category [2]: 2

Compound: Cn1c(=O)c2c(ncn2C)n(C)c1=O [Caffeine]
- Fusion index in combination with ERK inhibitor vs ERK inhibitor alone [1, 7]: significantly increased the fusion index

Compound: O.O=P([O-])(O)O.[Na+] [SODIUM PHOSPHATE MONOBASIC H20]
- Risk Assessment Category [2, 6]: 1
- Maximum Estimated Exposure per 100 g serving [3]: 1500 mg

Compound: FERRIC CITRATE
- Safe Reference Level for Human Dietary Intake: Iron UL [4]: Iron UL = 40 to 45 mg

Compound: IGF-1 (INSULIN-LIKE GROWTH FACTOR 1): growth factor of cell culture media
- Risk Assessment Category [2]: 3

- Risk Assessment Category [2]: 2
Compound: Cl.Cl.N[C@@H](CSSC[C@H](N)C(=O)O)C(=O)O [L-CYSTINE 2HCL]

Compound: O=C(O)CCCC[C@@H]1SC[C@@H]2NC(=O)N[C@@H]21 [D-BIOTIN]
- Risk Assessment Category [2]: 1
- Maximum Estimated Exposure per 100 g serving [3]: 4 mg

- Risk Assessment Category [2]: 2
Compound: CC[C@H](C)[C@H](N)C(=O)O [L-ISOLEUCINE]

Compound: PDGF-BB (PLATELET DERIVED GROWTH FACTOR-BB): growth factor of cell culture media
- Risk Assessment Category [2]: 3

Compound: Cl.N[C@@H](CS)C(=O)O.O [L-CYSTEINE HCL H20]
- Risk Assessment Category [2, 6]: 2

Compound: CCOC(=O)CCCCCCCCCCCN(C)C(=O)CO[C@H](C)[C@@H](C)OCC(=O)N(C)CCCCCCCCCCCC(=O)OCC [calcium ionophore I]
- Fusion index ([1]; ionophore 2 uM plus ERKi 1 uM): 89%

Compound: C[C@H](CCC(=O)O)C[C@H](C)C[C@H](C)C(=O)/C=C(\O)[C@H](C)C[C@H](C)C/C=C/[C@@H](C)[C@@H](O)[C@@H](C)[C@@H](O)C[C@@H]1CC[C@@](C)([C@H]2CC[C@@](C)([C@@H](C)O)O2)O1 [ionomycin]
- Fusion index ([1]; ionophore 2 uM plus ERKi 1 uM): 89%

- Risk Assessment Category [2]: 2
Compound: N[C@@H](Cc1c[nH]c2ccccc12)C(=O)O [L-TRYPTOPHAN]

Compound: N#CC(=C(/N)Sc1ccccc1N)/C(C#N)=C(\N)Sc1ccccc1N [U0126]
- Fusion ([1]; Differentiation media, 1 uM): 29%
- Fusion ([1]; Differentiation media, 10 uM): 47%
- Fusion ([1]; Proliferation media, 1 uM): 16%
- Fusion ([1]; Proliferation media, 10 uM): 7%

- Risk Assessment Category [2]: 2
Compound: C[C@@H](O)[C@H](N)C(=O)O [L-THREONINE]

Compound: CC1(C)CCC(C)(C)c2cc(NC(=O)c3ccc(C(=O)O)cc3)ccc21 [AM80]
- Fusion index in combination with ERK inhibitor vs ERK inhibitor alone [1, 5]: significantly increased the fusion index

Compound: N[C@@H](Cc1ccc([O-])cc1)C(=O)[O-].O.O.[Na+].[Na+] [L-TYROSINE-2NA-2H20]
- Risk Assessment Category [2, 6]: 2

Compound: CC(C)(C)c1cc(C(=O)/C=C/c2ccc(C(=O)O)cc2)cc(C(C)(C)C)c1 [CH55]
- Fusion index in combination with ERK inhibitor vs ERK inhibitor alone [1, 5]: significantly increased the fusion index

Compound: Cc1ccc(C(=O)Nc2ccc(S(=O)(=O)O)c3cc(S(=O)(=O)O)cc(S(=O)(=O)O)c23)cc1NC(=O)c1cccc(NC(=O)Nc2cccc(C(=O)Nc3cc(C(=O)Nc4ccc(S(=O)(=O)O)c5cc(S(=O)(=O)O)cc(S(=O)(=O)O)c45)ccc3C)c2)c1 [Suramin]
- Fusion index in combination with ERK inhibitor vs ERK inhibitor alone [1, 7]: significantly increased the fusion index

- Risk Assessment Category [2]: 1
- Maximum Estimated Exposure per 100 g serving [3]: 430 mg
Compound: O[C@H]1[C@H](O)[C@@H](O)[C@H](O)[C@@H](O)[C@H]1O [MYO-INOSITOL]

- Risk Assessment Category [2]: 1
Compound: O=C[C@H](O)[C@@H](O)[C@H](O)[C@H](O)CO [D-GLUCOSE]

Compound: C[N+](C)(C)CCO.[Cl-] [CHOLINE CHLORIDE]
- Risk Assessment Category [2]: 1
- Maximum Estimated Exposure per 100 g serving [3]: 52 mg

Compound: CC1(C)CCC(C)(C)c2cc(C(=O)Nc3ccc(C(=O)O)cc3)ccc21 [AM580]
- Fusion index in combination with ERK inhibitor vs ERK inhibitor alone [1, 5]: significantly increased the fusion index

- Risk Assessment Category [2]: 1
- Maximum Estimated Exposure per 100 g serving [3]: 60 mg
Compound: Nc1nc2ncc(CNc3ccc(C(=O)N[C@@H](CCC(=O)O)C(=O)O)cc3)nc2c(=O)[nH]1 [FOLIC ACID]

Compound: BOVINE SERUM ALBUMIN: animal component of cell culture media
- Risk Assessment Category [2]: 3

Compound: C/C(=C\c1ccc(C(=O)O)cc1)c1ccc2c(c1)C(C)(C)CCC2(C)C [TTNPB]
- Fusion index in combination with ERK inhibitor vs ERK inhibitor alone [1, 5]: significantly increased the fusion index

Compound: N[C@@H](CCC(=O)N[C@@H](CS)C(=O)NCC(=O)O)C(=O)O [L-GLUTATHIONE]
- Risk Assessment Category [2]: 2
- Maximum Estimated Exposure per 100 g serving [3]: 36 mg

Compound: CNc1ccc2oc(C[C@H]3O[C@@]4(CC[C@H]3C)O[C@H]([C@H](C)C(=O)c3ccc[nH]3)[C@H](C)C[C@H]4C)nc2c1C(=O)O [calcimycin]
- Fusion index ([1]; ionophore 1 uM plus ERKi 1 uM): 94%

- Risk Assessment Category [2]: 1
Compound: Cc1ncc(CO)c(C=O)c1O.Cl [PYRIDOXAL-HCL]

Compound: Cc1ncc(CO)c(CO)c1O.Cl [PYRIDOXINE-HCL]
- Risk Assessment Category [2, 6]: 1
- Maximum Estimated Exposure per 100 g serving [3]: 25 mg

- Risk Assessment Category [2]: 2
Compound: CSCC[C@H](N)C(=O)O [L-METHIONINE]

Compound: Cl.NCCCC[C@H](N)C(=O)O [L-LYSINE-HCL]
- Risk Assessment Category [2, 6]: 2
